pEC50: −log10 of the molar value. Where “and” joins values, the source holds several entries; their conditions need not be identical. Equal values may be shown once.
Experiments:
AaegOR71 = target: T1, AaegOR71 (Aedes aegypti, UniProt A0A3S7SHD4); experiment: Two-electrode voltage clamp of Xenopus laevis oocytes expressing AaegOR71/Orco (blends, unitary compounds, concentration-response); type: cell-based; conditions: for Raw Data (Response in nA) Oocyte 1 / Raw Data (Response in nA) Oocyte 2 / Raw Data (Response in nA) Oocyte 3 / Raw Data (Response in nA) Oocyte 4 / Raw Data (Response in nA) Oocyte 5 / Raw Data (Response in nA) Oocyte 6 / Raw Data (Response in nA) Oocyte 7 / Raw Data (Response in nA) Oocyte 8: Indoles 2 unitary compounds; for Raw Data (Response in nA): concentration-response, Oocytes 1-8 individually
T1 sequence (A0A3S7SHD4 1-415): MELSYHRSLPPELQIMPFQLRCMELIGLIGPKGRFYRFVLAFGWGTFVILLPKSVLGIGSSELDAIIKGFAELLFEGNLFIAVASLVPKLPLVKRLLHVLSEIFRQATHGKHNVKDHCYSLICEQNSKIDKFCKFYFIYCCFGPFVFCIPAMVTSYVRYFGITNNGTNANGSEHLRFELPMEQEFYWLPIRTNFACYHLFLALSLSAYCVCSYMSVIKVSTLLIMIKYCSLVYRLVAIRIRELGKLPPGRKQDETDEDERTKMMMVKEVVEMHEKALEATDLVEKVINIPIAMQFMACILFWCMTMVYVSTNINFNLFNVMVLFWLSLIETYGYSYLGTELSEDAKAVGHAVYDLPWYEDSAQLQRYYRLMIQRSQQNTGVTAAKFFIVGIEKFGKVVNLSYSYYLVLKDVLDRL
T1 sequence (Q178U6 1-478 partner): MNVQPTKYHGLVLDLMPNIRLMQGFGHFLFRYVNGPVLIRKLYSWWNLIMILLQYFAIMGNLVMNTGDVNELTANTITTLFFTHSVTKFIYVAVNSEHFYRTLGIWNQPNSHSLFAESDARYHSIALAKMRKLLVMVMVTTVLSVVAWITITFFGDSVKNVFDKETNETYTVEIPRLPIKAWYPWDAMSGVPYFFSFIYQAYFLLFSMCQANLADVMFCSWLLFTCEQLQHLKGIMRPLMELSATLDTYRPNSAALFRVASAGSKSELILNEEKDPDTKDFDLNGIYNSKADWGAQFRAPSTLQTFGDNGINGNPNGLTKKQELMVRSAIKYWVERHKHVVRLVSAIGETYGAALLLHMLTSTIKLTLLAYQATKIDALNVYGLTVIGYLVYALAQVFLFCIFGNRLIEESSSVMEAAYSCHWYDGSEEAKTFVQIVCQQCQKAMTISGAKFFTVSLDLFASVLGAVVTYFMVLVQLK
Description: (§1) The coding regions of ten AaegOR genes of interest (S3 File) and AaegOrco were synthesized by Twist Bioscience (San Francisco, CA, USA) and cloned into the pENTR plasmid. The Gateway LR directional cloning system (Invitrogen Corp., Carlsbad, CA, USA) was utilized to subclone AaegOR coding regions into the pSP64t-RFA oocyte expression plasmid. Plasmids were purified using the GeneJet Plasmid Miniprep Kit (ThermoFisher Scientific, Waltham, MA, USA). Purified plasmids were sequenced in both directions to confirm coding regions.
(§2) Chemical compounds (S6 File) used in the deorphanization of AaegORs were purchased from Acros Organics (Morris, NJ, USA), Alfa Aesar (Ward Hill, MA, USA), and ThermoFisher Scientific (Waltham, MA, USA) at the highest purity available. Compounds were stored as 1M stocks in 100% DMSO. Serial dilutions of each compound were prepared in 10% DMSO and blended by chemical class.
(§3) pSP64t-RFA: AaegOR clones were linearized using Xbal, and cRNAs were synthesized using the mMESSAGE mMACHINE ® SP6 kit (Life Technologies, Carlsbad, CA, USA). Xenopus laevis stage V-VII oocytes purchased from Xenopus1 (Dexter, MI, USA) were stored at 18°C in Incubation medium (ND96 96 with 5% dialyzed horse serum, 50μg/mL gentamycin, 100μg/mL streptomycin, 100μg/mL penicillin, and 550μg/mL sodium pyruvate). 30nL of cRNA was injected into multiple oocytes using a microinjection syringe pump (World Precision Instruments, Sarasota, FL, USA) maintained at 18°C for 48–72 hrs. Odorant blends were perfused across individual oocytes for 10–15 seconds, held at a resting membrane potential of -80 mV using an OC-725C oocyte clamp (Warner Instruments, LLC, Hamden, CT, USA). Induced currents were measured indirectly using the two-electrode voltage clamp technique (TEVC). Following each stimulus, currents were allowed to return to baseline before further stimulation. Data was captured using the Digidata 1550 B digitizer and PClamp10 software (Molecular Devices, San Jose, CA, USA). Concentration-response curves were generated by perfusing unitary odorants over oocytes at increasing concentrations from [10^-3M] to [10^-9M]. Data were analyzed using GraphPad Prism 8 (GraphPad Software Inc., La Jolla, CA, USA). At least two biological replicates were conducted at each concentration and for each compound. Data for at least seven oocytes responding to each compound was analyzed (S7 File).

AaegOR6 = target: T2, AaegOR6 (Aedes aegypti, UniProt A0A1S4G757); experiment: Two-electrode voltage clamp of Xenopus laevis oocytes expressing AaegOR6/Orco (blends, unitary compounds, concentration-response); type: cell-based; conditions: for Raw data (Responses in nA) Oocyte 1 / Raw data (Responses in nA) Oocyte 2 / Raw data (Responses in nA) Oocyte 3 / Raw data (Responses in nA) Oocyte 4 / Raw data (Responses in nA) Oocyte 5 / Raw data (Responses in nA) Oocyte 6 / Raw data (Responses in nA) Oocyte 7 / Raw data (Responses in nA) Oocyte 8: Indoles 2 unitary compounds
T2 sequence (A0A1S4G757 1-398): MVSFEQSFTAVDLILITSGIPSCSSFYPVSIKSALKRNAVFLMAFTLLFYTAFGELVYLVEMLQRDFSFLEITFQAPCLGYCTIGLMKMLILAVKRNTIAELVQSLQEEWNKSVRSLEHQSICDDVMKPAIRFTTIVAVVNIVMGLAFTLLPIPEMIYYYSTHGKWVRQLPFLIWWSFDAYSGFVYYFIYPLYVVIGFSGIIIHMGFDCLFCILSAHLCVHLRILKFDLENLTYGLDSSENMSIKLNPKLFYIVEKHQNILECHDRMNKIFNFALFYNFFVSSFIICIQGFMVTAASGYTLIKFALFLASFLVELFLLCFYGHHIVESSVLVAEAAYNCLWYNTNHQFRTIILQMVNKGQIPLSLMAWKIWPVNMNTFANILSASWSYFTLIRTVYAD
T2 sequence (Q178U6 1-478 partner): T1 sequence (Q178U6 1-478 partner)
Description: as §1, §2, §3

Row | SMILES | Raw Data (Response in nA) Oocyte 1 (AaegOR71) | Raw Data (Response in nA) Oocyte 2 (AaegOR71) | Raw Data (Response in nA) Oocyte 3 (AaegOR71) | Raw Data (Response in nA) Oocyte 4 (AaegOR71) | Raw Data (Response in nA) Oocyte 5 (AaegOR71) | Raw Data (Response in nA) Oocyte 6 (AaegOR71) | Raw Data (Response in nA) Oocyte 7 (AaegOR71) | Raw Data (Response in nA) Oocyte 8 (AaegOR71) | Raw data (Responses in nA) Oocyte 1 (AaegOR6) | Raw data (Responses in nA) Oocyte 2 (AaegOR6) | Raw data (Responses in nA) Oocyte 3 (AaegOR6) | Raw data (Responses in nA) Oocyte 4 (AaegOR6) | Raw data (Responses in nA) Oocyte 5 (AaegOR6) | Raw data (Responses in nA) Oocyte 6 (AaegOR6) | Raw data (Responses in nA) Oocyte 7 (AaegOR6) | Raw data (Responses in nA) Oocyte 8 (AaegOR6) | also measured
1 | O=C(O)Cc1c[nH]c2ccccc12 [1H-Indole-3-acetic acid] | 0 nA | 20 nA | 0 nA | 15 nA | 20 nA | 60 nA | 15 nA | 60 nA | 10.0 nA | 10.0 nA | 10.0 nA | 0.0 nA | 10.0 nA | 0.0 nA | 0.0 nA | 0.0 nA | 
2 | OCc1c[nH]c2ccccc12 [3-Indolemethanol] | 240 nA | 0 nA | 0 nA | 0 nA | 0 nA | 0 nA | 0 nA | 0 nA | 0.0 nA | 0.0 nA | 10.0 nA | 0.0 nA | 0.0 nA | 0.0 nA | 0.0 nA | 0.0 nA | 
3 | Oc1cccc2[nH]ccc12 [4-Hydroxyindole] | 20 nA | 30 nA | 0 nA | 30 nA | 0 nA | 30 nA | 30 nA | 10 nA | 0.0 nA | 0.0 nA | 5.0 nA | 0.0 nA | 0.0 nA | 0.0 nA | 0.0 nA | 0.0 nA | 
4 | O=C1CCOc2ccccc21 [4-chromanone, 4-Chromanone] | 0 nA | 310 nA | 15 nA | 140 nA | 15 nA | 60 nA | 30 nA | 20 nA | 70.0 nA | 50.0 nA | 90.0 nA | 170.0 nA | 70.0 nA | 650.0 nA | 510.0 nA | 510.0 nA | pEC50 (AaegOR6; AaegOR6/Orco expressing oocytes, TEVC, concentration-response of normalized current): ~5.16 and 5.16
5 | O=Cc1ccnc2ccccc12 [4-quinolinecarboxaldehyde, 4-Quinolinecarboxaldehyde] | 1070 nA | 2930 nA | 590 nA | 1710 nA | 390 nA | 930 nA | 330 nA | 410 nA | 0.0 nA | 0.0 nA | 0.0 nA | 0.0 nA | 0.0 nA | 0.0 nA | 0.0 nA | 0.0 nA | pEC50 (AaegOR71; AaegOR71/Orco expressing oocytes, TEVC, concentration-response of normalized current): ~6.02 and 6.02; Raw Data (Response in nA) (AaegOR71; first series, 1e-9 M): 10 nA (2×) and 0 nA (5×) and 30 nA; Raw Data (Response in nA) (AaegOR71; first series, 5e-9 M): 30 nA (2×) and 10 nA (2×) and 20 nA and 0 nA and 5 nA (2×); Raw Data (Response in nA) (AaegOR71; first series, 1e-8 M): 60 nA (2×) and 15 nA and 30 nA and 25 nA and 5 nA and 10 nA (2×); Raw Data (Response in nA) (AaegOR71; first series, 5e-8 M): 140 nA and 35 nA and 70 nA and 25 nA (2×) and 110 nA and 10 nA and 30 nA; Raw Data (Response in nA) (AaegOR71; first series, 1e-7 M): 200 nA and 50 nA (3×) and 120 nA and 30 nA (2×) and 190 nA; Raw Data (Response in nA) (AaegOR71; first series, 5e-7 M): 500 nA and 150 nA and 320 nA and 90 nA (2×) and 380 nA and 100 nA and 120 nA; Raw Data (Response in nA) (AaegOR71; first series, 1e-6 M): 620 nA and 180 nA and 410 nA and 125 nA and 470 nA and 140 nA and 150 nA (2×); Raw Data (Response in nA) (AaegOR71; second series (unlabelled), 5e-9 M): 8.84 nA and 16 nA and 25 nA and 15 nA (2×) and 5 nA (2×) and 0 nA; Raw Data (Response in nA) (AaegOR71; second series (unlabelled), 1e-8 M): 20 nA (3×) and 40 nA (2×) and 60 nA and 150 nA and 30 nA; Raw Data (Response in nA) (AaegOR71; second series (unlabelled), 5e-8 M): 40 nA (4×) and 80 nA and 100 nA and 160 nA and 20 nA; Raw Data (Response in nA) (AaegOR71; second series (unlabelled), 1e-7 M): 60 nA (3×) and 120 nA (2×) and 190 nA and 40 nA and 50 nA; Raw Data (Response in nA) (AaegOR71; second series (unlabelled), 5e-7 M): 140 nA and 240 nA and 260 nA and 110 nA and 80 nA (2×) and 300 nA and 50 nA; Raw Data (Response in nA) (AaegOR71; second series (unlabelled), 1e-6 M): 180 nA and 290 nA (2×) and 140 nA
6 | Nc1cccc2cnccc12 [5-Aminoisoquinoline] | 130 nA | 200 nA | 40 nA | 40 nA | 0 nA | 10 nA | 0 nA | 10 nA | 0.0 nA | 0.0 nA | 0.0 nA | 0.0 nA | 0.0 nA | 0.0 nA | 0.0 nA | 0.0 nA | 

From article PMC11073699, “Odorant receptors for floral- and plant-derived volatiles in the yellow fever mosquito, Aedes aegypti (Diptera: Culicidae)” (PLOS ONE, 2024)
